Values joined by “and” are separate entries in the source; they are usually repeats but may differ in a detail not shown here. Equal entries are not always repeated.
Tested on: 699152-130-R-J1-PDC complex spheroid growth
Assay: Anticancer human tumor 699152-130-R-J1-PDC patient-derived pancreatic carcinoma cell line growth inhibition [AhR]
Conditions: for viability, T/C: stronger effect = lower value
How it was run: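 Agents were dosed in half-log steps down from roughly clinical Cmax, or from 10 microM where Cmax was unknown, alone and with AhR antagonists. Read-out: percent test/control growth of tumor spheroids containing HUVEC and MSC stromal cells.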

[1] = curve of first compound, second compound 0.1 µM
[2] = curve of first compound, second compound 0.316 µM
[3] = curve of first compound, second compound 1 µM
[4] = curve of first compound, second compound 3.16 µM
[5] = curve of first compound, second compound 10 µM
[6] = second compound 0.1 µM, first compound 0.0316 µM
[7] = second compound 0.1 µM, first compound 0.1 µM
[8] = second compound 0.1 µM, first compound 0.316 µM
[9] = second compound 0.1 µM, first compound 1 µM
[10] = second compound 0.316 µM, first compound 0.0316 µM
[11] = second compound 0.316 µM, first compound 0.1 µM
[12] = second compound 0.316 µM, first compound 0.316 µM
[13] = second compound 0.316 µM, first compound 1 µM
[14] = second compound 1 µM, first compound 0.0316 µM
[15] = second compound 1 µM, first compound 0.1 µM
[16] = second compound 1 µM, first compound 0.316 µM
[17] = second compound 1 µM, first compound 1 µM
[18] = second compound 3.16 µM, first compound 0.0316 µM
[19] = second compound 3.16 µM, first compound 0.1 µM
[20] = second compound 3.16 µM, first compound 0.316 µM
[21] = second compound 3.16 µM, first compound 1 µM
[22] = second compound 10 µM, first compound 0.0316 µM
[23] = second compound 10 µM, first compound 0.1 µM
[24] = second compound 10 µM, first compound 0.316 µM
[25] = second compound 10 µM, first compound 1 µM
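Also: compound exposure lasted 7 days after spheroids had grown for 3 days.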

In the case of COc1cc(Nc2ncc3c(n2)-c2ccc(Cl)cc2C(c2c(F)cccc2OC)=NC3)ccc1C(=O)O, the viability, T/C (compound 0.0316 µM) is reported as 97.6% and 87.1% and 94%, the viability, T/C (compound 0.1 µM) is reported as 71.4% and 74.1% and 85.8% and the viability, T/C (compound 0.316 µM) is reported as 80.8% and 74.1% and 72%. The viability, T/C (compound 1 µM) was 60.1% and 59.5% and 65.4%, the viability, T/C (compound 3.16 µM) was 58.4% and 63% and 64.4% and the viability, T/C (compound 10 µM) was 55.9% and 54.8% and 60.7%. It also gave an IC50 (curve of compound) greater than 10000 nM.

Work on Nc1ccn(C2OC(CO)C(O)C2(F)F)c(=O)n1 (configuration not stated) + Cc1cncc(-c2nc(NCCc3c[nH]c4ccccc34)c3ncn(C(C)C)c3n2)c1 yielded an IC50 [1] of 1240 nM, an IC50 [2] of 1300 nM and an IC50 [3] of 2510 nM. For the same molecule, the IC50 [4] was 864 nM, the IC50 [5] was less than 31.6 nM and the viability, T/C [6] was 76.3%. It also gave a viability, T/C [7] of 69.2%, a viability, T/C [8] of 62.3% and a viability, T/C [9] of 49.4%. The viability, T/C (second compound 0.1 µM, first compound 3.16 µM) was 46.6%, the viability, T/C (second compound 0.1 µM, first compound 10 µM) was 42.8% and the viability, T/C [10] was 81.3%. The viability, T/C [11] was 63.6%, the viability, T/C [12] was 56.8% and the viability, T/C [13] was 56.1%. It also gave a viability, T/C (second compound 0.316 µM, first compound 3.16 µM) of 45.3%, a viability, T/C (second compound 0.316 µM, first compound 10 µM) of 40.6% and a viability, T/C [14] of 72.6%. It also gave a viability, T/C [15] of 67.9%, a viability, T/C [16] of 58.6% and a viability, T/C [17] of 53.8%. It also gave a viability, T/C (second compound 1 µM, first compound 3.16 µM) of 50.5%, a viability, T/C (second compound 1 µM, first compound 10 µM) of 43.8% and a viability, T/C [18] of 74.7%. The viability, T/C [19] was 71.1%, the viability, T/C [20] was 55.6% and the viability, T/C [21] was 50.8%. The viability, T/C (second compound 3.16 µM, first compound 3.16 µM) was 45.4%, the viability, T/C (second compound 3.16 µM, first compound 10 µM) was 49.8% and the viability, T/C [22] was 47.8%. The viability, T/C [23] was 50.9%, the viability, T/C [24] was 40.5% and the viability, T/C [25] was 46%. The viability, T/C (second compound 10 µM, first compound 3.16 µM) was 39.4% and the viability, T/C (second compound 10 µM, first compound 10 µM) was 35.5%.

In the case of Nc1ncn(C2CC(O)C(CO)S2)c(=O)n1 (configuration not stated) + Cc1ccccc1N=Nc1ccc(NC(=O)c2ccnn2C)c(C)c1, the IC50 [1] is reported as greater than 300 nM, the IC50 [2] is reported as greater than 300 nM and the IC50 [3] is reported as greater than 300 nM. For the same molecule, the IC50 [4] was greater than 300 nM, the IC50 [5] was greater than 300 nM and the viability, T/C (second compound 0.1 µM, first compound 0.000949 µM) was 99.6%. It also gave a viability, T/C (second compound 0.1 µM, first compound 0.003 µM) of 98.9%, a viability, T/C (second compound 0.1 µM, first compound 0.00949 µM) of 99% and a viability, T/C (second compound 0.1 µM, first compound 0.03 µM) of 95.5%. For the same molecule, the viability, T/C (second compound 0.1 µM, first compound 0.0949 µM) was 102%, the viability, T/C (second compound 0.1 µM, first compound 0.3 µM) was 102% and the viability, T/C (second compound 0.316 µM, first compound 0.000949 µM) was 101%. It also gave a viability, T/C (second compound 0.316 µM, first compound 0.003 µM) of 105%, a viability, T/C (second compound 0.316 µM, first compound 0.00949 µM) of 95.3% and a viability, T/C (second compound 0.316 µM, first compound 0.03 µM) of 105%. For the same molecule, the viability, T/C (second compound 0.316 µM, first compound 0.0949 µM) was 103%, the viability, T/C (second compound 0.316 µM, first compound 0.3 µM) was 90.4% and the viability, T/C (second compound 1 µM, first compound 0.000949 µM) was 101%. For the same molecule, the viability, T/C (second compound 1 µM, first compound 0.003 µM) was 101%, the viability, T/C (second compound 1 µM, first compound 0.00949 µM) was 103% and the viability, T/C (second compound 1 µM, first compound 0.03 µM) was 107%. It also gave a viability, T/C (second compound 1 µM, first compound 0.0949 µM) of 103%, a viability, T/C (second compound 1 µM, first compound 0.3 µM) of 89.8% and a viability, T/C (second compound 3.16 µM, first compound 0.000949 µM) of 90.2%. For the same molecule, the viability, T/C (second compound 3.16 µM, first compound 0.003 µM) was 99%, the viability, T/C (second compound 3.16 µM, first compound 0.00949 µM) was 104% and the viability, T/C (second compound 3.16 µM, first compound 0.03 µM) was 101%. It also gave a viability, T/C (second compound 3.16 µM, first compound 0.0949 µM) of 100%, a viability, T/C (second compound 3.16 µM, first compound 0.3 µM) of 95.3% and a viability, T/C (second compound 10 µM, first compound 0.000949 µM) of 114%. For the same molecule, the viability, T/C (second compound 10 µM, first compound 0.003 µM) was 116%, the viability, T/C (second compound 10 µM, first compound 0.00949 µM) was 122% and the viability, T/C (second compound 10 µM, first compound 0.03 µM) was 111%. The viability, T/C (second compound 10 µM, first compound 0.0949 µM) was 114% and the viability, T/C (second compound 10 µM, first compound 0.3 µM) was 107%.

Nc1ncn(C2CC(O)C(CO)O2)c(=O)n1 (configuration not stated) + Cc1cncc(-c2nc(NCCc3c[nH]c4ccccc34)c3ncn(C(C)C)c3n2)c1 showed an IC50 [1] greater than 1000 nM, an IC50 [2] greater than 1000 nM and an IC50 [3] greater than 1000 nM. It also gave an IC50 [4] greater than 1000 nM, an IC50 [5] of less than 3.16 nM and a viability, T/C (second compound 0.1 µM, first compound 0.00316 µM) of 109%. It also gave a viability, T/C (second compound 0.1 µM, first compound 0.01 µM) of 88%, a viability, T/C [6] of 90.4% and a viability, T/C [7] of 98.4%. For the same molecule, the viability, T/C [8] was 85.4%, the viability, T/C [9] was 87.8% and the viability, T/C (second compound 0.316 µM, first compound 0.00316 µM) was 99.3%. It also gave a viability, T/C (second compound 0.316 µM, first compound 0.01 µM) of 90.8%, a viability, T/C [10] of 104% and a viability, T/C [11] of 86.5%. The viability, T/C [12] was 96.3%, the viability, T/C [13] was 97.2% and the viability, T/C (second compound 1 µM, first compound 0.00316 µM) was 106%. The viability, T/C (second compound 1 µM, first compound 0.01 µM) was 115%, the viability, T/C [14] was 99.6% and the viability, T/C [15] was 97.9%. It also gave a viability, T/C [16] of 110%, a viability, T/C [17] of 92.2% and a viability, T/C (second compound 3.16 µM, first compound 0.00316 µM) of 95%. It also gave a viability, T/C (second compound 3.16 µM, first compound 0.01 µM) of 87.1%, a viability, T/C [18] of 111% and a viability, T/C [19] of 100%. It also gave a viability, T/C [20] of 97.6%, a viability, T/C [21] of 93.9% and a viability, T/C (second compound 10 µM, first compound 0.00316 µM) of 0.96%. It also gave a viability, T/C (second compound 10 µM, first compound 0.01 µM) of 2.37%, a viability, T/C [22] of 0.78% and a viability, T/C [23] of 0.82%. For the same molecule, the viability, T/C [24] was 1.11% and the viability, T/C [25] was 5.98%.
